# Tests used:
# stress ulcer = experiment: Test B (Inhibition of stress ulcer); format: in vivo, male Sprague-Dawley rats; conditions: rats; 32 mg/kg orally just before stress; restraint in water bath 22° C. for 7 hours; vs control group
# Method: Test B (Inhibition of stress ulcer):
# Five male Sprague-Dawley rats, aged 7 weeks, were fasted but allowed free access to water for 24 hours. Animals were placed in a restraint cage and immersed to a level of the xiphoid in a water bath kept 22° C. for 7 hours. Each of the test compounds (32 mg/kg) suspended in 0.1% methylcellulose solution was administered orally just before the stress subjection. Animals were sacrificed and stomachs were removed. After fixing with 2% formalin, stomachs were opened along the greater curvature and area of ulcers was measured. Percentage inhibition was calculated by comparing the mean area of ulcers (mm^2) in the test group with that in the control group.
# Gastric secretion [1] = experiment: Test A (Gastric secretion in Heidenhain pouch dogs); format: in vivo, Beagle dogs; conditions: 3.2 mg/kg orally, tetragastrin (10 μg/kg/hr) i.v. stimulation, 3 hours
# Method: Test A (Gastric secretion in Heidenhain pouch dogs):
# Beagle dogs, weighing about 8-13 kg, were used for the study on gastric secretion. The animals were surgically provided with a vagally denervated Heidenhain pouch. One month or more later, the dogs were fasted overnight. Gastric secretion was stimulated by an intravenous infusion of tetragastrin (10 μg/kg/hr). Gastric juice was collected at 15 minutes intervals. After the secretion plateau had been established, test compound (3.2 mg/kg) suspended in 0.1% methyl cellulose solution was administered orally. Gastric juice was collected at 15 minutes intervals over 3 hours period. Acid concentration was determined by titrating an aliquot against 0.1N sodium hydroxide using automatic titrator (Hiranuma RAT-11 Type). Total acid output was calculated by multiplying the volume of gastric juice by acid concentration, and percentage inhibition was calculated by comparing total acid output before adminstration of test compound with that after administration of test compound.
# Gastric secretion [2] = experiment: Test C (Gastric secretion from lumen perfused stomach in anesthetized rats); format: in vivo, Male Sprague-Dawley rats; conditions: 1 mg/kg intravenously, histamine (3 mg/kg/hr) i.v. stimulation
# Method: Test C (Gastric secretion from lumen perfused stomach in anesthetized rats):
# Male Sprague-Dawley rats weighing about 250 g were used. Rats were deprived of food but allowed free access to water for 24 hours. The animals were anesthteized with 1.25 g/kg urethane intraperitoneally. The abdomen was opened and the gastric lumen was perfused with saline throughout the experiment. The perfusate was titrated continuously against 25 mM sodium hydroxide to maintain the perfusate solution at pH 7.0. Gastric secretion was stimulated by intravenous infusion with histamine (3 mg/kg/hr). After reaching plateau, test compound (1 mg/kg) was given intravenously at a volume of 2 ml/kg. Effect of drug was expressed as maximal inhibition of acid output calculated by the amount of sodium hydroxide required.
structure (smiles),measurement,setting,value
"CCNC(N)=Nc1nc(-c2cccc(CNC(C)=O)c2)cs1 [Test Compound (c), 4-(3-Acetylaminomethylphenyl)-2-[[(amino)(ethylamino)methylene]amino]thiazole]",Inhibition (%) of area of ulcers,stress ulcer,88.1%
"CNC(N)=Nc1nc(-c2cccc(CNC(C)=O)c2)cs1 [Test Compound (b), 4-(3-Acetylaminomethylphenyl)-2-[[(amino)(methylamino)methylene]amino]thiazole]",Inhibition (%) of total acid output,Gastric secretion [1],88.1%
"NC(=O)NCc1cccc(-c2csc(N=C(N)N)n2)c1 [Test Compound (a), 4-(3-Ureidomethylphenyl)-2-(diaminomethyleneamino)thiazole]","Inhibition (%), maximal inhibition of acid output",Gastric secretion [2],99%
